Measurements as given in article PMC9516243, “Design of stapled peptide-based PROTACs for MDM2/MDMX atypical degradation and tumor suppression” (Theranostics, 2022).
Positions of bridges follow the written chain, without caps; N, C: chain ends. Non-standard residues stand in square brackets, D forms with d. Residues, ends and D or L forms follow the SMILES beside them. Hyp = O=C(O)[C@@H]1C[C@@H](O)CN1; R8 = C=CCCCCCC[C@@](C)(N)C(=O)O; hLeu = CC(C)CC[C@H](N)C(=O)O; S5 = C=CCCC[C@](C)(N)C(=O)O; PEG3 = NCCOCCOCCOCCC(=O)O; PEG2 = NCCOCCOCCC(=O)O; AEA = NCCOCC(=O)O

Tests used:
[1] = α-Helicity by CD spectroscopy; type: physicochemical; settings: PB pH 7.2, 10-50 µM peptide, 20°C, calculated from [θ]222
Description: Peptides were dissolved in PB (pH = 7.2) to concentrations ranging from 10 to 50 µM. CD spectra were obtained on a Jasco J-715 spectropolarimeter at 20°C. The spectra were collected using a 0.1 cm path length quartz cuvette with the following measurement parameters: wavelength, 185-255 nm; step resolution, 0.1 nm; speed, 20 nm/min; accumulations, 6; bandwidth, 1 nm. The helical content of each peptide was calculated as reported previously.

circular dichroism = settings: phosphate buffer (PB); pH 7.2; 20 °C; 10-50 uM
HCT116 p53^+/+ cells = test: Cell viability assay (CCK-8); type: cell-based, human; settings: 72 h
Description: (§1) The human colon carcinoma cell line HCT116 p53^+/+ was obtained from the Cell Bank of the Chinese Academy of Sciences (Shanghai, China). HCT116 p53^-/- cells were generously provided by Prof. Vogelstein of Johns Hopkins University. Both cell lines were cultured in McCoy's 5A medium (Gibco, USA) containing 10% FBS, 100 units/ml penicillin, and 100 μg/ml streptomycin at 37 °C in a humidified incubator containing 5% CO2. Cell viability was measured using a Cell Counting Kit-8 (CCK-8) (Dojindo, Kumamoto, Japan) according to the manufacturer's instructions. In brief, the cells (5 × 10^3 cells/well in […] medium) were cultured for 24 h in 96-well microplates in a humidified 5% CO2 incubator at 37 °C and then treated with varying concentrations of compounds or 0.1% DMSO vehicle control.

HCT116 p53^-/- cells = test: Cell viability assay (CCK-8); type: cell-based, human; settings: 72 h
Description: as §1

In the case of CC(=O)N[C@H](C(=O)N[C@@H](CO)C(=O)N[C@@H](Cc1ccccc1)C(=O)N[C@@H](C)C(=O)N[C@@H](CCC(=O)O)C(=O)N[C@@H](Cc1ccc(O)cc1)C(=O)N[C@@H](Cc1c[nH]c2ccccc12)C(=O)N[C@@H](C)C(=O)N[C@@H](CC(C)C)C(=O)N[C@@H](CC(C)C)C(=O)N[C@@H](CO)C(=O)NCCOCCOCCC(=O)N[C@@H](CC(C)C)C(=O)N[C@@H](C)C(=O)N1C[C@H](O)C[C@H]1C(=O)N[C@@H](Cc1ccc(O)cc1)C(=O)N[C@@H](CCC(C)C)C(=O)N1CCC[C@H]1C(N)=O)[C@@H](C)O [PMI-HIF1-2], the “α-helicity (%)” value [1] is reported as 17% and the helicity (circular dichroism) is reported as 17%.

With CC(=O)N[C@H](C(=O)N[C@@H](CO)C(=O)N[C@@H](Cc1ccccc1)C(=O)N[C@@H](C)C(=O)N[C@@H](CCC(=O)O)C(=O)N[C@@H](Cc1ccc(O)cc1)C(=O)N[C@@H](Cc1c[nH]c2ccccc12)C(=O)N[C@@H](C)C(=O)N[C@@H](CC(C)C)C(=O)N[C@@H](CC(C)C)C(=O)N[C@@H](CO)C(=O)NCCOCCOCCOCCC(=O)N[C@@H](CC(C)C)C(=O)N[C@@H](C)C(=O)N1C[C@H](O)C[C@H]1C(=O)N[C@@H](Cc1ccc(O)cc1)C(=O)N[C@@H](CCC(C)C)C(=O)N1CCC[C@H]1C(N)=O)[C@@H](C)O [PMI-HIF1-3] the “α-helicity (%)” value [1] was 17% and the helicity (circular dichroism) was 17%.

With CC(=O)N[C@H](C(=O)N[C@@H](CO)C(=O)N[C@@H](Cc1ccccc1)C(=O)N[C@@]1(C)CCCC=CCCC[C@@](C)(C(=O)N[C@@H](CC(C)C)C(=O)N[C@@H](CC(C)C)C(=O)N[C@@H](CO)C(N)=O)NC(=O)[C@H](Cc2c[nH]c3ccccc23)NC(=O)[C@H](Cc2ccc(O)cc2)NC(=O)[C@H](CCC(=O)O)NC1=O)[C@@H](C)O [SPMI1] (Ac-TSF[S5]EYW[S5]LLS-NH2; staple 4-8) the “α-helicity (%)” value [1] was 4%, the helicity (circular dichroism) was 4% and the IC50 (HCT116 p53^+/+ cells) was greater than 100 µM. For the same molecule, the IC50 (HCT116 p53^-/- cells) was greater than 100 µM.

In the case of CC(=O)N[C@H](C(=O)N[C@@H](CO)C(=O)N[C@@H](Cc1ccccc1)C(=O)N[C@@]1(C)CCCC=CCCC[C@@](C)(C(=O)N[C@@H](CC(C)C)C(=O)N[C@@H](CC(C)C)C(=O)N[C@@H](CO)C(=O)NCCOCC(=O)N[C@@H](CC(C)C)C(=O)N[C@@H](C)C(=O)N2C[C@H](O)C[C@H]2C(=O)N[C@@H](Cc2ccc(O)cc2)C(=O)N[C@@H](CCC(C)C)C(=O)N2CCC[C@H]2C(N)=O)NC(=O)[C@H](Cc2c[nH]c3ccccc23)NC(=O)[C@H](Cc2ccc(O)cc2)NC(=O)[C@H](CCC(=O)O)NC1=O)[C@@H](C)O [SPMI-HIF1-1] (Ac-TSF[S5]EYW[S5]LLS[AEA]LA[Hyp]Y[hLeu]P-NH2; staple 4-8), the “α-helicity (%)” value [1] is reported as 3%, the helicity (circular dichroism) is reported as 3% and the IC50 (HCT116 p53^+/+ cells) is reported as 82.1 µM. For the same molecule, the IC50 (HCT116 p53^-/- cells) was greater than 100 µM.

With CC(=O)N[C@H](C(=O)N[C@@H](CO)C(=O)N[C@@H](Cc1ccccc1)C(=O)N[C@@]1(C)CCCC=CCCC[C@@](C)(C(=O)N[C@@H](CC(C)C)C(=O)N[C@@H](CC(C)C)C(=O)N[C@@H](CO)C(=O)NCCOCCOCCC(=O)N[C@@H](CC(C)C)C(=O)N[C@@H](C)C(=O)N2C[C@H](O)C[C@H]2C(=O)N[C@@H](Cc2ccc(O)cc2)C(=O)N[C@@H](CCC(C)C)C(=O)N2CCC[C@H]2C(N)=O)NC(=O)[C@H](Cc2c[nH]c3ccccc23)NC(=O)[C@H](Cc2ccc(O)cc2)NC(=O)[C@H](CCC(=O)O)NC1=O)[C@@H](C)O [SPMI-HIF1-2] (Ac-TSF[S5]EYW[S5]LLS[PEG2]LA[Hyp]Y[hLeu]P-NH2; staple 4-8) the “α-helicity (%)” value [1] was 2%, the helicity (circular dichroism) was 2% and the IC50 (HCT116 p53^+/+ cells) was 85.1 µM. For the same molecule, the IC50 (HCT116 p53^-/- cells) was greater than 100 µM.

In the case of CC(=O)N[C@H](C(=O)N[C@@H](CO)C(=O)N[C@@H](Cc1ccccc1)C(=O)N[C@@]1(C)CCCC=CCCC[C@@](C)(C(=O)N[C@@H](CC(C)C)C(=O)N[C@@H](CC(C)C)C(=O)N[C@@H](CO)C(=O)NCCOCCOCCOCCC(=O)N[C@@H](CC(C)C)C(=O)N[C@@H](C)C(=O)N2C[C@H](O)C[C@H]2C(=O)N[C@@H](Cc2ccc(O)cc2)C(=O)N[C@@H](CCC(C)C)C(=O)N2CCC[C@H]2C(N)=O)NC(=O)[C@H](Cc2c[nH]c3ccccc23)NC(=O)[C@H](Cc2ccc(O)cc2)NC(=O)[C@H](CCC(=O)O)NC1=O)[C@@H](C)O [SPMI-HIF1-3] (Ac-TSF[S5]EYW[S5]LLS[PEG3]LA[Hyp]Y[hLeu]P-NH2; staple 4-8), the “α-helicity (%)” value [1] is reported as 27%, the helicity (circular dichroism) is reported as 27% and the IC50 (HCT116 p53^+/+ cells) is reported as 57.7 µM. It also gave an IC50 (HCT116 p53^-/- cells) greater than 100 µM.

In the case of CC(=O)N[C@H](C(=O)N[C@@H](CO)C(=O)N[C@@H](Cc1ccccc1)C(=O)N[C@]1(C)CCCCCCC=CCCC[C@@](C)(C(=O)NCCOCCOCCC(=O)N[C@@H](CC(C)C)C(=O)N[C@@H](C)C(=O)N2C[C@H](O)C[C@H]2C(=O)N[C@@H](Cc2ccc(O)cc2)C(=O)N[C@@H](CCC(C)C)C(=O)N2CCC[C@H]2C(N)=O)NC(=O)[C@H](CC(C)C)NC(=O)[C@H](CC(C)C)NC(=O)[C@H](C)NC(=O)[C@H](Cc2c[nH]c3ccccc23)NC(=O)[C@H](Cc2ccc(O)cc2)NC(=O)[C@H](CCC(=O)O)NC1=O)[C@@H](C)O [SPMI-HIF2-2] (Ac-TSF[R8]EYWALL[S5][PEG2]LA[Hyp]Y[hLeu]P-NH2; staple 4-11), the “α-helicity (%)” value [1] is reported as 37%, the helicity (circular dichroism) is reported as 37% and the IC50 (HCT116 p53^+/+ cells) is reported as 10.8 µM. For the same molecule, the IC50 (HCT116 p53^-/- cells) was greater than 100 µM.

With CC(=O)N[C@H](C(=O)N[C@@H](CO)C(=O)N[C@@H](Cc1ccccc1)C(=O)N[C@]1(C)CCCCCCC=CCCC[C@@](C)(C(=O)NCCOCCOCCOCCC(=O)N[C@@H](CC(C)C)C(=O)N[C@@H](C)C(=O)N2C[C@H](O)C[C@H]2C(=O)N[C@@H](Cc2ccc(O)cc2)C(=O)N[C@@H](CCC(C)C)C(=O)N2CCC[C@H]2C(N)=O)NC(=O)[C@H](CC(C)C)NC(=O)[C@H](CC(C)C)NC(=O)[C@H](C)NC(=O)[C@H](Cc2c[nH]c3ccccc23)NC(=O)[C@H](Cc2ccc(O)cc2)NC(=O)[C@H](CCC(=O)O)NC1=O)[C@@H](C)O [SPMI-HIF2-3] (Ac-TSF[R8]EYWALL[S5][PEG3]LA[Hyp]Y[hLeu]P-NH2; staple 4-11) the “α-helicity (%)” value [1] was 24%, the helicity (circular dichroism) was 24% and the IC50 (HCT116 p53^+/+ cells) was 15.2 µM. The IC50 (HCT116 p53^-/- cells) was greater than 100 µM.
